Assay results reported in paper PMC4076210, “Discovery of Novel AKT Inhibitors with Enhanced Anti-Tumor Effects in Combination with the MEK Inhibitor” (PLoS ONE, 2014).

Test system: solid tumor cell lines
Test: 3-day proliferation assay (CellTiter-Glo)
Assay type: cell-based, human
Details: for IC50: Homo sapiens
Procedure: Various tumor cell lines were obtained from different sources including; the American Type Cell Culture Collection, the Developmental Therapeutics Program, the National Cancer Institute, the German Resource Center for Biological Material and the European Collection of Animal Cell Cultures. Cell lines were typically grown in […] containing 10% FBS. Some cell lines were grown in media specified by the vendor. A 3-day proliferation assay using CellTiter-Glo (CTG, Promega) was performed to measure the growth inhibition by the compounds at 0–30 µM. Cell growth was determined relative to untreated (DMSO) controls. EC50's were calculated from inhibition curves using a 4- or 6-parameter fitting algorithm in the Assay Client application.

## Cn1ncc(Cl)c1-c1cc(C(=O)N[C@H](CN)Cc2cccc(F)c2)sc1Cl [GSK2110183]
178 cell lines, 3 days, CTG
  solid tumor cell lines with EC50<1 µM: 21%
22Rv1, 22Rv1, Prostate
  IC50: 0.706 µM
647-V, 647V, Bladder
  IC50: 11.5 µM
786-0, 786-O, Kidney
  IC50: 1.64 µM
A204, A204, Sarcoma
  IC50: 2.14 µM
A549, A549, Lung
  IC50: 3.28 µM
A673, A673, Sarcoma
  IC50: 19.9 µM
A2780, A2780, Ovary
  IC50: 4.03 µM
A-375, A375, Skin
  IC50: 8.68 µM
A-427, A427, Lung
  IC50: 19 µM
ACHN, Kidney
  IC50: 3.71 µM
AGS, Stomach
  IC50: 0.964 µM
BE(2)-C, BE2C, Neuroblastoma
  IC50: 1.47 µM
BFTC-905, BFTC905, Bladder
  IC50: 2.64 µM
BT-20, BT20, Breast
  IC50: 0.311 µM
BXPC-3, BXPC3, Pancreas
  IC50: > 30 µM
C3A, Liver
  IC50: 1.75 µM
C32TG, Skin
  IC50: 0.975 µM
C-33-A, C-33A, Cervix
  IC50: 0.541 µM
C-41, Cervix
  IC50: 15.2 µM
CAL-27, CAL27, Head & Neck
  IC50: 8.01 µM
CAL-62, CAL62, Thyroid
  IC50: 10.4 µM
CCF-STTG1, CCFSTTG1, Brain
  IC50: 0.673 µM
CGTH-W-1, CGTHW1, Thyroid
  IC50: 3.07 µM
CHL-1, CHL1, Skin
  IC50: 3.79 µM
CHP-212, CHP212, Neuroblastoma
  IC50: 2.32 µM
COLO 205, COLO205, Colon
  IC50: 7.58 µM
COLO 320DM, COLO320DM, Colon
  IC50: 1.34 µM
COLO 704, COLO704, Ovary
  IC50: 0.339 µM
COR-L23, CORL23, Lung
  IC50: 3.92 µM
Calu-3, CALU3, Lung
  IC50: 3.31 µM
Calu-6, CALU6, Lung
  IC50: 5.49 µM
Caov-3, CAOV3, Ovary
  IC50: 6.18 µM
Capan-2, Capan2, Pancreas
  IC50: 9.38 µM
DBTRG-05MG, DBTRG05MG, Brain
  IC50: 4.43 µM
DKMG, Brain
  IC50: 3.68 µM
DLD-1, DLD1, Colon
  IC50: 8.45 µM
DU-145, DU145, Prostate
  IC50: 6.54 µM
DU-4475, DU4475, Breast
  IC50: 2.27 µM
DoTc2-4510, DoTc24510, Cervix
  IC50: 2.25 µM
EFM-19, EFM19, Breast
  IC50: 0.117 µM
EKVX, Lung
  IC50: 5.54 µM
ES2, Ovary
  IC50: 4.52 µM
FaDu, Head & Neck
  IC50: 10.5 µM
G-401, G401, Head & Neck
  IC50: 1.12 µM
GCT, Sarcoma
  IC50: 5.89 µM
H4, Brain
  IC50: 2.99 µM
HCC70, HCC70, Breast
  IC50: 0.081 µM
HCC1954, HCC1954, Breast
  IC50: 0.32 µM
HCC 2998, HCC2998, Colon
  IC50: 2.2 µM
HCT-116, HCT116, Colon
  IC50: 5.64 µM
HMCB, Skin
  IC50: 4.46 µM
HN5, Head & Neck
  IC50: 2.96 µM
HOS, Sarcoma
  IC50: 2.46 µM
HPAF-II, HPAFII, Pancreas
  IC50: 7.49 µM
HT3, Cervix
  IC50: 2.66 µM
HT-29, HT29, Colon
  IC50: 2.02 µM
HT-1080, HT1080, Sarcoma
  IC50: 7.92 µM
HUVEC, Normal Endothelial
  IC50: 3 µM
HeLa, Cervix
  IC50: 6.33 µM
Hep3B, Liver
  IC50: 0.399 µM
Hs746T, Stomach
  IC50: 2.07 µM
IGROV-1, IGROV1, Ovary
  IC50: 0.054 µM
J82, Bladder
  IC50: 2.07 µM
KATO III, KATOIII, Stomach
  IC50: 0.571 µM
KHOS-240S, KHOS240S, Sarcoma
  IC50: 8.15 µM
KM12, KM12, Colon
  IC50: 6.49 µM
KPL-1, KPL1, Breast
  IC50: 3.83 µM
KYSE-30, KYSE30, Oesophagus
  IC50: 3.44 µM
LNCaP, Prostate
  IC50: 0.076 µM
LS174T, Colon
  IC50: 3.47 µM
LS-1034, LS1034, Colon
  IC50: 3.17 µM
M14, Skin
  IC50: 4.88 µM
MC-IXC, MCIXC, Neuroblastoma
  IC50: 1.05 µM
MCF7, MCF7, Breast
  IC50: 0.473 µM
MCF-10A, MCF10A, Normal Breast
  IC50: 0.644 µM
MDA-MB-175-VII, MDAMB175-VII, Breast
  IC50: 0.189 µM
MDA-MB-231, MDAMB231, Breast
  IC50: 13.2 µM
MDA-MB-453, MDAMB453, Breast
  IC50: 1.17 µM
MDA-MB-468, MDAMB468, Breast
  IC50: 0.995 µM
MES-SA, MESSA, Sarcoma
  IC50: 0.66 µM
MIA PaCa-2, MiaPaCa, Pancreas
  IC50: 1.71 µM
NCI-H69, NCIH69, Lung
  IC50: 1.39 µM
NCI-H82, NCIH82, Lung
  IC50: 29.3 µM
NCI-H146, NCIH146, Lung
  IC50: 11.3 µM
NCI-H157, NCIH157, Lung
  IC50: 2.03 µM
NCI-H187, NCIH187, Lung
  IC50: 0.263 µM
NCI-H209, NCI-H209, Lung
  IC50: 4.43 µM
NCI-H226, NCIH226, Lung
  IC50: 6.14 µM
NCI-H292, NCIH292, Lung
  IC50: 4.82 µM
NCI-H322, NCIH322, Lung
  IC50: 9.34 µM
NCI-H358, NCI-H358, Lung
  IC50: 1.93 µM
NCI-H446, NCIH446, Lung
  IC50: 1.14 µM
NCI-H460, NCIH460, Lung
  IC50: 3.73 µM
NCI-H508, NCIH508, Lung
  IC50: 0.309 µM
NCI-H520, NCIH520, Lung
  IC50: 0.935 µM
NCI-H630, NCIH630, Lung
  IC50: 5.95 µM
NCI-H661, NCIH661, Lung
  IC50: 5.5 µM
NCI-H716, NCIH716, Colon
  IC50: 3.85 µM
NCI-H747, NCIH747, Lung
  IC50: 2.05 µM
NCI-H1563, NCIH1563, Lung
  IC50: 0.582 µM
NCI-H1792, NCIH1792, Lung
  IC50: 4.68 µM
NCI-H2030, NCIH2030, Lung
  IC50: 5.67 µM
NCI-H2052, NCIH2052, Lung
  IC50: 4.75 µM
NCI-H2081, NCIH2081, Lung
  IC50: 0.73 µM
NCI-H2122, NCIH2122, Lung
  IC50: 2.97 µM
NCI-H2170, NCI-H2170, Lung
  IC50: 1.56 µM
NCI-H2228, NCIH2228, Lung
  IC50: 0.926 µM
NCI-N87, NCIN87, Stomach
  IC50: 1.29 µM
NCI/ADR-RES, NCIADRRES, Breast
  IC50: 12.3 µM
OE19, OE19, Oesophagus
  IC50: 5.52 µM
OE21, OE21, Oesophagus
  IC50: 0.256 µM
OE33, OE33, Oesophagus
  IC50: 8.07 µM
OV-90, OV90, Ovary
  IC50: 4.69 µM
OVCAR-3, OVCAR3, Ovary
  IC50: 5.85 µM
OVCAR-4, OVCAR4, Ovary
  IC50: 20 µM
OVCAR-5, OVCAR5, Ovary
  IC50: 7.72 µM
PANC-1, Panc1, Pancreas
  IC50: 4.42 µM
PC3, Prostate
  IC50: 3.02 µM
PL45, PL45, Pancreas
  IC50: 6.98 µM
Panc 02.03, Panc02.03, Pancreas
  IC50: 14.4 µM
RD, Sarcoma
  IC50: 11.3 µM
RD-ES, RDES, Sarcoma
  IC50: 2.41 µM
RKO, Colon
  IC50: 1.46 µM
SAOS-2, SAOS2, Sarcoma
  IC50: 5.35 µM
SCC12, SCC12, Head & Neck
  IC50: 3.85 µM
SCC-9, SCC9, Head & Neck
  IC50: 6.58 µM
SCC-13, SCC-13, Head & Neck
  IC50: 18.8 µM
SCC-15, SCC15, Head & Neck
  IC50: 4.17 µM
SCC-25, SCC-25, Head & Neck
  IC50: 4.69 µM
SCLC3, Lung
  IC50: 0.22 µM
SF-295, SF295, Brain
  IC50: 0.835 µM
SF-539, SF539, Brain
  IC50: 0.891 µM
SH4, Skin
  IC50: > 30 µM
SHP77, SHP77, Lung
  IC50: 5.22 µM
SJRH30, SJRH30, Sarcoma
  IC50: 0.919 µM
SK-BR-3, SKBR3, Breast
  IC50: 0.371 µM
SK-LMS-1, SKLMS1, Sarcoma
  IC50: 7.98 µM
SK-MEL-1, SKMEL1, Skin
  IC50: 2.14 µM
SK-MEL-28, SKMEL28, Skin
  IC50: 3.23 µM
SK-MES-1, SKMES-1, Lung
  IC50: 4.55 µM
SK-N-AS, SKNAS, Neuroblastoma
  IC50: 7.09 µM
SK-OV-3, SKOV3, Ovary
  IC50: 1.1 µM
SK-UT-1, SKUT1, Sarcoma
  IC50: 0.504 µM
SKNF1, Neuroblastoma
  IC50: 0.886 µM
SN12C, Kidney
  IC50: > 30 µM
SNB-75, SNB75, Brain
  IC50: 1.47 µM
SNU1, SNU1, Stomach
  IC50: 2.15 µM
SNU-5, SNU5, Stomach
  IC50: 11.8 µM
SNU-16, SNU16, Stomach
  IC50: 6.58 µM
SNU-398, SNU398, Liver
  IC50: 27.3 µM
SNU-449, SNU449, Liver
  IC50: 6.66 µM
SW48, SW48, Colon
  IC50: 0.807 µM
SW480, SW480, Colon
  IC50: > 30 µM
SW579, SW579, Thyroid
  IC50: 1.82 µM
SW684, SW684, Sarcoma
  IC50: 1.04 µM
SW756, SW756, Cervix
  IC50: 10.4 µM
SW780, SW780, Bladder
  IC50: 8.44 µM
SW872, SW872, Sarcoma
  IC50: 0.919 µM
SW900, SW900, Lung
  IC50: 15.6 µM
SW1088, SW1088, Brain
  IC50: 0.952 µM
SW1417, SW1417, Colon
  IC50: 3.96 µM
SW1783, SW1783, Brain
  IC50: 0.592 µM
SW1990, SW1990, Pancreas
  IC50: 13.3 µM
Skut1B, Sarcoma
  IC50: 0.021 µM
T47D, T-47D, Breast
  IC50: 0.331 µM
T84, Colon
  IC50: 8.49 µM
TE 381.T, TE381T, Sarcoma
  IC50: 1.63 µM
TK-10, TK10, Kidney
  IC50: 4.8 µM
U20S, Sarcoma
  IC50: > 30 µM
U138-MG, U138MG, Brain
  IC50: 2.81 µM
U-87 MG, U87MG, Brain
  IC50: 4.97 µM
U-251, U251, Brain
  IC50: 2.43 µM
UACC-62, UACC62, Skin
  IC50: 2.09 µM
UACC-257, UACC257, Skin
  IC50: 5.26 µM
UMUC3, UMUC3, Bladder
  IC50: 10 µM
YAPC, Pancreas
  IC50: 8.3 µM
ZR-75-1, ZR75-1, Breast
  IC50: 0.088 µM
